From patent US20250289842A1, “Processes for Making NAG-25, a Carbohydrate Targeting Moiety, and its Intermediates” (AMGEN INC., priority 2022, published 2025) come the findings set out here.

The data set is described as follows: High Throughput Experimentation (HTE) solubility screen, solvent/heptane mixtures for crystallization. The note with it: 20° C., 2-MeTHF. The format is physicochemical. The procedure:
A High Throughput Experimentation (HTE) solubility screen was conducted to determine the solvent/anti-solvent combination for the crystallization and align the reaction solvent with the crystallization solvent. Solubility studies of t-Butyl Core at 20° C. were conducted for various percentages of heptane. […] The solubility screen pointed to MTBE/heptane being one example of a useful solvent mixture for crystallization because of its gradual solubility curve.

As to `CC(C)(C)OC(=O)CC[C@H](NC(=O)CC[C@H](NC(=O)OCc1ccccc1)C(=O)OC(C)(C)C)C(=O)OC(C)(C)C` [t-Butyl Core], the “solubility of t-Butyl Core” value by setting is: (MIBK or IPAc with 80% heptane) 50 mg/mL; (MIBK or IPAc with 90% heptane) 10 mg/mL.
